Measured values from publication PMC5936891, “A focused library synthesis and cytotoxicity of quinones derived from the natural product bolinaquinone” (Royal Society Open Science, 2018).

Legend:
HT29 (colon carcinoma) = test: MTT in vitro growth inhibition assay, HT29; type: cell-based; conditions: Homo sapiens; for inhibition at 25 µM: HT-29, 25 µM of drug, 72 h, read-out: Percentage of Cell Growth Inhibition HT29; for GI50: HT-29, 72 h drug exposure
Description: (§1) With the desired bolinaquinone analogues 12–43 in hand, we examined their cytotoxicity against a panel of 11 tumour cell lines: HT29 (colon carcinoma), U87 and SJ-G2 (glioblastoma), MCF-7 (breast carcinoma), A2780 (ovarian carcinoma), H460 (lung carcinoma), A431 (skin carcinoma), Du145 (prostate carcinoma), BE2-C (neuroblastoma), MIA (pancreatic carcinoma), SMA (spontaneous murine astrocytoma) and a normal breast cell line (MCF10A). The inclusion of the MCF-10A cell line allowed a determination of a crude measure of relative toxicity while noting that the ultimate arbiter of toxicity requires in vivo evaluation. All analogues were initially screened at a 25 µM drug concentration.
(§2) Stock solutions were prepared as follows and stored at −20°C: drugs were stored as 40 mM solutions in DMSO. All cell lines were cultured in a humidified atmosphere 5% CO2 at 37°C. The cancer cell lines were maintained in Dulbecco's modified Eagle's medium (DMEM) (Trace Biosciences, Australia) supplemented with 10% fetal bovine serum, 10 mM sodium bicarbonate, penicillin (100 IU ml^−1), streptomycin (100 µg ml^−1) and glutamine (4 mM). The non-cancer MCF10A cell line was cultured in DMEM:F12 (1 : 1) cell culture media, 5% heat-inactivated horse serum, supplemented with penicillin (50 IU ml^−1), streptomycin (50 µg ml^−1), 20 mM Hepes, L-glutamine (2 mM), epidermal growth factor (20 ng ml^−1), hydrocortisone (500 ng ml^−1), cholera toxin (100 ng ml^−1) and insulin (10 ug ml^−1).
(§3) Cells in logarithmic growth were transferred to 96-well plates. Cytotoxicity was determined by plating cells in duplicate in 100 µl medium at a density of 2500–4000 cells per well. On day 0 (24 h after plating), when the cells were in logarithmic growth, 100 μl of medium with or without the test agent was added to each well. After 72 h, drug exposure growth inhibitory effects were evaluated using the MTT (3-[4,5-dimethylthiazol-2-yl]-2,5-diphenyl-tetrazolium bromide) assay and the absorbance read at 540 nm. Percentage growth inhibition was determined at a fixed drug concentration of 25 µM. A value of 100% is indicative of complete cell growth inhibition. Those analogues showing appreciable percentage growth inhibition underwent further dose–response analysis allowing for the calculation of a GI50 value. This value is the drug concentration at which cell growth is 50% inhibited based on the difference between the optical density values on day 0 and those at the end of drug exposure.

U87 (glioblastoma) = test: MTT in vitro growth inhibition assay, U87; type: cell-based; conditions: for inhibition at 25 µM: 25 µM of drug, 72 h, read-out: Percentage of Cell Growth Inhibition U87; for GI50: 72 h drug exposure
Description: as §1, §2, §3

MCF-7 (breast carcinoma) = test: MTT in vitro growth inhibition assay, MCF-7; type: cell-based; conditions: Homo sapiens; for inhibition at 25 µM: MCF7, 25 µM of drug, 72 h, read-out: Percentage of Cell Growth Inhibition MCF-7; for GI50: MCF7, 72 h drug exposure
Description: as §1, §2, §3

[1] = tested on: A2780 (ovarian carcinoma); test: MTT in vitro growth inhibition assay, A2780; type: cell-based; conditions: Homo sapiens; for inhibition at 25 µM: 25 µM of drug, 72 h, read-out: Percentage of Cell Growth Inhibition A2780; for GI50: 72 h drug exposure
Description: as §1, §2, §3

H460 (lung carcinoma) = test: MTT in vitro growth inhibition assay, H460; type: cell-based; conditions: Homo sapiens; for inhibition at 25 µM: NCI-H460, 25 µM of drug, 72 h, read-out: Percentage of Cell Growth Inhibition H460; for GI50: NCI-H460, 72 h drug exposure
Description: as §1, §2, §3

A431 (skin carcinoma) = test: MTT in vitro growth inhibition assay, A431; type: cell-based; conditions: Homo sapiens; for inhibition at 25 µM: A-431, 25 µM of drug, 72 h, read-out: Percentage of Cell Growth Inhibition A431; for GI50: A-431, 72 h, 72 h drug exposure
Description: as §1, §2, §3

[2] = tested on: Du145 (prostate carcinoma); test: MTT in vitro growth inhibition assay, Du145; type: cell-based; conditions: Homo sapiens, DU-145, 25 µM of drug, 72 h, read-out: Percentage of Cell Growth Inhibition Du145
Description: as §1, §2, §3

BE2-C (neuroblastoma) = test: MTT in vitro growth inhibition assay, BE2-C; type: cell-based; conditions: Homo sapiens, BE(2)-C, 72 h; for inhibition at 25 µM: 25 µM of drug, read-out: Percentage of Cell Growth Inhibition BE2-C; for GI50: 72 h drug exposure
Description: as §1, §2, §3

SJ-G2 (glioblastoma) = test: MTT in vitro growth inhibition assay, SJ-G2; type: cell-based; conditions: for inhibition at 25 µM: 25 µM of drug, 72 h, read-out: Percentage of Cell Growth Inhibition SJ-G2; for GI50: 72 h drug exposure
Description: as §1, §2, §3

[3] = tested on: MIA (pancreatic carcinoma); test: MTT in vitro growth inhibition assay, MIA; type: cell-based; conditions: for inhibition at 25 µM: 25 µM of drug, 72 h, read-out: Percentage of Cell Growth Inhibition MIA; for GI50: 72 h drug exposure
Description: as §1, §2, §3

[4] = tested on: SMA (spontaneous murine astrocytoma); test: MTT in vitro growth inhibition assay, SMA; type: cell-based; conditions: Mus musculus; for inhibition at 25 µM: 25 µM of drug, 72 h, read-out: Percentage of Cell Growth Inhibition SMA; for GI50: 72 h drug exposure
Description: as §1, §2, §3

[5] = tested on: MCF10A (normal breast cell line); test: MTT in vitro growth inhibition assay, MCF10A; type: cell-based; conditions: Homo sapiens, MCF-10A; for inhibition at 25 µM: 25 µM of drug, 72 h, read-out: Percentage of Cell Growth Inhibition MCF10A; for GI50: normal breast cell line, 72 h drug exposure
Description: as §1, §2, §3

Row | SMILES | inhibition at 25 µM (HT29 (colon carcinoma)) | GI50 (HT29 (colon carcinoma)) | inhibition at 25 µM (U87 (glioblastoma)) | GI50 (U87 (glioblastoma)) | inhibition at 25 µM (MCF-7 (breast carcinoma)) | GI50 (MCF-7 (breast carcinoma)) | inhibition at 25 µM [1] | GI50 [1] | inhibition at 25 µM (H460 (lung carcinoma)) | inhibition at 25 µM (A431 (skin carcinoma)) | inhibition at 25 µM [2] | inhibition at 25 µM (BE2-C (neuroblastoma)) | GI50 (BE2-C (neuroblastoma)) | inhibition at 25 µM (SJ-G2 (glioblastoma)) | GI50 (SJ-G2 (glioblastoma)) | inhibition at 25 µM [3] | GI50 [3] | inhibition at 25 µM [4] | GI50 [4] | inhibition at 25 µM [5] | further results
1 | COC1=CC(=O)C(OC)=C(c2ccccc2)C1=O [compound 12, 2,5-Dimethoxy-3-phenylcyclohexa-2,5-diene-1,4-dione] | 24 ± 1% | 42 ± 6.2 µM | 12 ± 2% | 47 ± 2.2 µM | 40 ± 3% | 22 ± 3.4 µM | 75 ± 7% | 18 ± 0.7 µM | < 10% | 10 ± 3% | < 10% | > 100% | 10 ± 1.1 µM | 27 ± 6% | 27 ± 0.9 µM | 31 ± 5% | 29 ± 1.5 µM | 49 ± 8% | 29 ± 3.2 µM | < 10% | GI50 (H460 (lung carcinoma)): > 50 µM; GI50 (A431 (skin carcinoma)): 40 ± 4.5 µM; melting point: 122 to 124 °C
2 | COC1=CC(=O)C(OC)=C(c2ccc(C)cc2)C1=O [compound 13, 2,5-Dimethoxy-3-p-tolylcyclohexa-2,5-diene-1,4-dione] | 10 ± 4% | > 50 µM | 13 ± 4% | > 50 µM | 23 ± 3% | 37 ± 1 µM | 72 ± 10% | 20 ± 1.2 µM | 13 ± 3% | < 10% | 13 ± 2% | > 100% | 12 ± 1.2 µM | 41 ± 18% | 33 ± 1.9 µM | < 10% | > 50 µM | 45 ± 9% | 33 ± 2.3 µM | 10 ± 5% | GI50 (H460 (lung carcinoma)): > 50 µM; GI50 (A431 (skin carcinoma)): > 50 µM; GI50 [5]: 50 ± 9.2 µM
3 | COC1=CC(=O)C(OC)=C(c2ccc(O)cc2)C1=O [compound 16, 3-(4-Hydroxyphenyl)-2,5-dimethoxycyclohexa-2,5-diene-1,4-dione] | 11 ± 3% | – | < 10% | – | 15% | – | < 10% | 35 ± 1.9 µM | < 10% | > 100% | 21 ± 6% | < 10% | ~11 µM | 21 ± 9% | 43 ± 1.5 µM | < 10% | – | – | 50 ± 3.2 µM | – | –
4 | COC1=CC(=O)C(OC)=C(c2ccc(CO)cc2)C1=O [compound 17, 3-(4-(Hydroxymethyl)phenyl)-2,5-dimethoxycyclohexa-2,5-diene-1,4-diene] | < 10% | – | < 10% | 45 ± 2.3 µM | < 10% | 36 ± 2 µM | 53 ± 5% | 22 ± 0.9 µM | < 10% | < 10% | < 10% | > 100% | ~11 µM | 22 ± 4% | 33 ± 1.3 µM | < 10% | 37 ± 1 µM | 21 ± 10% | 37 ± 0.7 µM | < 10% | GI50 [5]: 49 µM; melting point: 116 to 118 °C
